Reference: the supplement of paper PMC10307832

How the values were obtained:
Assay in all cases: relative viability (nuclei count vs DMSO), 5 days (fraction); higher = more cells survive
[1] = compound: Cc1ccccc1C(C(=O)NC1CCCCC1)N(C(=O)Cn1ccnc1C)c1cccc(F)c1 [IDH-C35] + O=C(CCCCCCC(=O)Nc1ccccc1)NO [Vorinostat] (partner 1 µM)
Summary of the method: (§1)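 Relative viability is defined as nuclei in treated wells over nuclei in vehicle wells. Duplicate plates were run and medians reported. Lung cancer cell lines in 1536-well plates were dosed by pin tool one day after seeding, with one drug or with a fixed anchor-drug dose plus five library-drug doses (not always all listed) in √10 steps, and nuclei were counted after 5 days.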

[2] = compound: CC1=C(C(=NN1)C)CC2=C(C3=C(S2)N(C(=O)N(C3=O)C)CC(C)C)C(=O)N4C[C@@H](CO4)O + C[C@@H](Oc1cc(-c2cnn(C3CCNCC3)c2)cnc1N)c1c(Cl)ccc(F)c1Cl [Crizotinib] (partner 1 µM)
Summary of the method: as §1

[3] = compound: Cc1ccccc1C(C(=O)NC1CCCCC1)N(C(=O)Cn1ccnc1C)c1cccc(F)c1 [IDH-C35] + CC(=O)c1c(C)c2cnc(Nc3ccc(N4CCNCC4)cn3)nc2n(C2CCCC2)c1=O [Palbociclib] (partner 0.5 µM)
Summary of the method: as §1

[4] = compound: Cc1ccccc1C(C(=O)NC1CCCCC1)N(C(=O)Cn1ccnc1C)c1cccc(F)c1 [IDH-C35] + CC(=O)Nc1cccc(-n2c(=O)n(C3CC3)c(=O)c3c(Nc4ccc(I)cc4F)n(C)c(=O)c(C)c32)c1 [Trametinib] (partner 0.02 µM)
Summary of the method: as §1

UMC-11 was tested, and the relative viability ([1]; first compound 0.08 µM) was 0.373, the relative viability ([1]; first compound 0.253 µM) was 0.468 and the relative viability ([1]; first compound 0.8 µM) was 0.435. The relative viability ([1]; first compound 2.53 µM) was 0.434, the relative viability ([1]; first compound 8 µM) was 0.46 and the relative viability ([2]; first compound 0.0025 µM) was 0.647. The relative viability ([2]; first compound 0.007906 µM) was 0.346, the relative viability ([2]; first compound 0.025 µM) was 0.441 and the relative viability ([2]; first compound 0.07906 µM) was 0.628. The relative viability ([2]; first compound 0.25 µM) was 0.657, the relative viability ([3]; first compound 0.08 µM) was 0.335 and the relative viability ([3]; first compound 0.253 µM) was 0.32. It also gave a relative viability ([3]; first compound 0.8 µM) of 0.341, a relative viability ([3]; first compound 2.53 µM) of 0.299 and a relative viability ([3]; first compound 8 µM) of 0.337. For the same cell line, the relative viability ([4]; first compound 0.08 µM) was 0.738, the relative viability ([4]; first compound 0.253 µM) was 0.761 and the relative viability ([4]; first compound 0.8 µM) was 0.617. The relative viability ([4]; first compound 2.53 µM) was 0.685 and the relative viability ([4]; first compound 8 µM) was 0.772.
